According to patent US8609852B2, “Thiazolyl mGluR5 antagonists and methods for their use” (Merck Sharp & Dohme Corp., priority 2004, dated 2013):

Tests used:
[1] = aqueous medium
hmGluR5a receptor = hmGluR5a receptor (Homo sapiens (Human), UniProt P41594); assay: Calcium Flux Assay; assay type: cell-based; conditions: hmGluR5a/L38-20 cells, glutamate-evoked [Ca2+]i
Method: The activity of compounds was examined against the hmGluR5a receptor stably expressed in mouse fibroblast Ltk− cells (the hmGluR5a/L38-20 cell line). See generally Daggett et al., Neuropharmacology 34:871-886 (1995). Receptor activity was detected by changes in intracellular calcium ([Ca^2+]i) measured using the fluorescent calcium-sensitive dye, fura-2. hmGluR5a/L38-20 cells were plated onto 96-well plates, and loaded with 3 µM fura-2 for 1 h. Unincorporated dye was washed from the cells, and the cell plate was transferred to a custom-built 96-channel fluorimeter (SIBIA-SAIC, La Jolla, Calif.) which is integrated into a fully automated plate handling and liquid delivery system. Cells were excited at 350 and 385 nm with a xenon source combined with optical filters. Emitted light was collected from the sample through a dichroic mirror and a 510 nm interference filter and directed into a cooled CCD camera (Princeton Instruments). Image pairs were captured approximately every 1 s, and ratio images were generated after background subtraction. After a basal reading of 20 s, an EC80 concentration of glutamate ([…]) was added to the well, and the response evaluated for another 60 s. The glutamate-evoked increase in [Ca^2+]i in the presence of the screening compound was compared to the response of glutamate alone (the positive control).

[2] = biological target: metabotropic glutamate receptor subtype 5 (Rattus norvegicus (Rat), UniProt P31424); assay: [3H]-mGluR5 Antagonist Binding to Rodent Brain Membranes
Method: In accordance with Anderson J J, Rao S P, Rowe B, Giracello D R, Holtz G, Chapman D F, Tehrani L, Bradbury M J, Cosford N D, Varney M A, [^3H]Methoxymethyl-3-[(2-methyl-1,3-thiazol-4-yl)ethynyl]pyridine binding to metabotropic glutamate receptor subtype 5 in rodent brain: in vitro and in vivo characterization. J Pharmacol Exp Ther. 2002 December; 303 (3):1044-51, membranes were prepared (as described in Ransom R W and Stec N L (1988) Cooperative modulation of [^3H]MK-801 binding to the N-methyl-D-aspartate receptor-ion channel complex by L-glutamate, glycine, and polyamines. J Neurochem 51:830-836) using whole rat brain, or mGlu5^+/+ or mGlu5^−/− whole mouse brain.
Binding assays were performed as described in Schaffhauser H, Richards J G, Cartmell J, Chaboz S, Kemp J A, Klingelschmidt A, Messer J, Stadler H, Woltering T and Mutel V (1998) In vitro binding characteristics of a new selective group II metabotropic glutamate receptor radioligand, [^3H]LY354740, in rat brain. Mol Pharmacol 53:228-233) at room temperature with slight modifications. Briefly, membranes were thawed and washed once with assay buffer (50 mM HEPES, 2 mM MgCl2, pH 7.4), followed by centrifugation at 40,000×g for 20 min. The pellet was resuspended in assay buffer and briefly homogenized with a Polytron.
For protein linearity experiments, increasing concentrations of membrane protein were added to 96-well plates in triplicate and binding was initiated by addition of 20 nM [^3H]methoxymethyl-3-[(2-methyl-1,3-thiazol-4-yl)ethynyl]pyridine. The assay was incubated for 2 h and non-specific binding was determined using 10 μM MPEP. The binding was terminated by rapid filtration through glass-fiber filters (Unifilter-96 GF/B plate, Packard) using a 96-well plate Brandel cell harvester. Following addition of scintillant, the radioactivity was determined by liquid scintillation spectrometry. Protein measurements were performed by BioRad-DC Protein assay using bovine serum albumin as the standard.
Saturation binding experiments were performed in triplicate with increasing concentrations of [^3H]methoxymethyl-3-[(2-methyl-1,3-thiazol-4-yl)ethynyl]pyridine (1 pM to 100 nM). The time course of association was measured by the addition of 10 nM [^3H]methoxymethyl-3-[(2-methyl-1,3-thiazol-4-yl)ethynyl]pyridine to the membranes at different time points (0-240 min), followed by filtration. Dissociation was measured by the addition of 100 μM unlabeled methoxymethyl-3-[(2-methyl-1,3-thiazol-4-yl)ethynyl]pyridine at different time points to membranes previously incubated for 3 h with 10 nM [^3H]methoxymethyl-3-[(2-methyl-1,3-thiazol-4-yl)ethynyl]pyridine. For competition experiments, 100 μg membrane protein and 10 nM [^3H]methoxymethyl-3-[(2-methyl-1,3-thiazol-4-yl)ethynyl]pyridine was added to wells containing increasing concentration of the test compound in duplicate (methoxymethyl-3-[(2-methyl-1,3-thiazol-4-yl)ethynyl]pyridine or MPEP). [^3H]-3-Methoxy-5-(pyridin-2-ylethynyl)pyridine may also be used as the radioligand in the procedure described above. (See, Cosford, N. D. P.; Roppe, J.; Tehrani, L.; Seiders, T. J.; Schweiger, E. J. et al. [3H]-Methoxymethyl-MTEP and [3H]-methoxy-PEPy): Potent and selective radioligands for the Metabotropic Glutamate Subtype 5 (mGlu5) Receptor. Bioorg. Med. Chem. Lett. 2003, 13, 351-354.)

hmGluR5 = hmGluR5 (Homo sapiens (Human), UniProt P41594); assay: Phosphatidylinositol Hydrolysis (IP) Assay; assay type: cell-based; conditions: hmGluR5/L38-20 cells
Method: Inositol phophate assays were performed as described by Berridge et al. (1982) (Berridge et al, (1982) Biochem. J. 206: 587-5950; and Nakajima et al., J. Biol. Chem. 267:2437-2442 (1992)) with slight modifications. Mouse fibroblast Ltk cells expressing hmGluR5 (hmGluR5/L38-20 cells) were seeded in 24-well plates at a density of 8×10^5 cells/well. […] of [^3H]-inositol (Amersham PT6-271; Arlington Heights, Ill.; specific activity=17.7 Ci/mmol) was added to each well and incubated for 16 h at 37° C. Cells were washed twice and incubated for 45 min in 0.5 ml of standard Hepes buffered saline buffer (HBS; 125 mM NaCl, 5 mM KCl, […] MgS04, 1.8 mM CaCl2, 20 mM HEPES, 6 mM glucose, pH to 7.4). The cells were washed with HBS containing 10 mM LiCl, and 400 ill buffer added to each well. Cells were incubated at 37° C. for 20 min. For testing, […], of 10× compounds used in the practice of the invention [made in HBS/LiCl (100 mM)] was added and incubated for 10 minutes. Cells were activated by the addition of […] glutamate, and the plates left for 1 hour at 37° C.
The incubations were terminated by the addition of 1 mL ice-cold methanol to each well. In order to isolate inositol phosphates (IPs), the cells were scraped from wells, and placed in numbered glass test tubes. […] Scintillant was added to each vial, and the vials shaken, and counted in a scintillation counter after 2 hours. […]

Chain of metabotropic glutamate receptor subtype 5 (P31424 21-1203): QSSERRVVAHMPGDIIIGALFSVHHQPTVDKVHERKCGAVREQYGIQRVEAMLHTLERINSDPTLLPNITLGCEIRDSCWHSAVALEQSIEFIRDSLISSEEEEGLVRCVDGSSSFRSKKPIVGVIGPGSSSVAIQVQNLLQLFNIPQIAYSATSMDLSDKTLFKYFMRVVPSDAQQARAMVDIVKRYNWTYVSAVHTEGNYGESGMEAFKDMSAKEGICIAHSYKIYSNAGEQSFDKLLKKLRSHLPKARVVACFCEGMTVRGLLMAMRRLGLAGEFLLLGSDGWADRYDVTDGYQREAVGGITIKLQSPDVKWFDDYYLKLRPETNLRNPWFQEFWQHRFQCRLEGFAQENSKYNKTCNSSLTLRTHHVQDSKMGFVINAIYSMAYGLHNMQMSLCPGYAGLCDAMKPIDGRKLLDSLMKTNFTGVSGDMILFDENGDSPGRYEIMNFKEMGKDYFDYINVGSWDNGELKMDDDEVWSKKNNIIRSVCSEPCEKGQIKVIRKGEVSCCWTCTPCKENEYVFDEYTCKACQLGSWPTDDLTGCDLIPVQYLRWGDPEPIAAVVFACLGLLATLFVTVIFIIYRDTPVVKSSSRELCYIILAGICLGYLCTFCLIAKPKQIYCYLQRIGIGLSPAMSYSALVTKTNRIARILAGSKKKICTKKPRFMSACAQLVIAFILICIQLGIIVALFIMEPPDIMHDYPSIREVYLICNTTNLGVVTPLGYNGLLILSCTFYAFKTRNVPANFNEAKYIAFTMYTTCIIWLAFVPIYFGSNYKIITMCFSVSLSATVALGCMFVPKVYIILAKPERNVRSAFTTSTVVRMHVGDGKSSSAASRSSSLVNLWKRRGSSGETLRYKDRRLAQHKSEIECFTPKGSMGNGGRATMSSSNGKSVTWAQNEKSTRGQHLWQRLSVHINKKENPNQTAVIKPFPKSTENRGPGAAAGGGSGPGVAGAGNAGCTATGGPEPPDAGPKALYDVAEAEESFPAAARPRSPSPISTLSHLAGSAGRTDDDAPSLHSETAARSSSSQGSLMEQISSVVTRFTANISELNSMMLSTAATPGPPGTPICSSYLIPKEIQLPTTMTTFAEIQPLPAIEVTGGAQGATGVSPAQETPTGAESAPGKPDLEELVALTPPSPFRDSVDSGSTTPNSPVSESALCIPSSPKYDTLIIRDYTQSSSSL
Chain of hmGluR5a receptor (P41594 other isoform, or with tags, fused parts or gaps): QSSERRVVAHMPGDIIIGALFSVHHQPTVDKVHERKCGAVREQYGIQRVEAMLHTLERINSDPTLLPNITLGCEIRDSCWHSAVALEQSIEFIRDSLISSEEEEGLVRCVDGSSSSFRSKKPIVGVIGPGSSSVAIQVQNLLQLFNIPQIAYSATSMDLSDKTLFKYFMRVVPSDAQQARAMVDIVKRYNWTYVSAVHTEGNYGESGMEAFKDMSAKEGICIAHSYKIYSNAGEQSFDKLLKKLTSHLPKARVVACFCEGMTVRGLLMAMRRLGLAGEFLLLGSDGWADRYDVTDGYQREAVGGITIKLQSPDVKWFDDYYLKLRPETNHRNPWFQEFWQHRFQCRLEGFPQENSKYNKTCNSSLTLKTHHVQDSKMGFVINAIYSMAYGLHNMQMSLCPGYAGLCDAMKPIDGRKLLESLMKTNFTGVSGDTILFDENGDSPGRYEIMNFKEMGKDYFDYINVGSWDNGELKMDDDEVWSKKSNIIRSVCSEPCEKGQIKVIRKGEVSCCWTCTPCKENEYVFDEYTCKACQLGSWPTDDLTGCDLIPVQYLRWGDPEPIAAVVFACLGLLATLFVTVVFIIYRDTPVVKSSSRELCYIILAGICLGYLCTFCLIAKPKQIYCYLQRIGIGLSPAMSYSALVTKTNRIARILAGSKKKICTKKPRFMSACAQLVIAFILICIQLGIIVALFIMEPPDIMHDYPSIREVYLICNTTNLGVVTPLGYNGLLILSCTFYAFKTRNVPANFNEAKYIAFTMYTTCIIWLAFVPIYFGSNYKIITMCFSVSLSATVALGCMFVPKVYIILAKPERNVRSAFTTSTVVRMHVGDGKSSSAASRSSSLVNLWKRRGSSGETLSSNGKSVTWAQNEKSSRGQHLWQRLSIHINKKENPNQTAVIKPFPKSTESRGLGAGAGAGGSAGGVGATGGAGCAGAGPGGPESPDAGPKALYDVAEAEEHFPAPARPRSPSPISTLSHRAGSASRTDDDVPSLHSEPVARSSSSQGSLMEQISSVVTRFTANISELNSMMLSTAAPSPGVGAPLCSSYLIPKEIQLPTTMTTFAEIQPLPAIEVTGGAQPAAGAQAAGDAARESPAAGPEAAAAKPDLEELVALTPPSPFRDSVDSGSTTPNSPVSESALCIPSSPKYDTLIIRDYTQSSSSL
Chain of hmGluR5 (P41594 other isoform, or with tags, fused parts or gaps): as above

SMILES	solubility [1]	IC50 (hmGluR5a receptor)	Ki [2]	IC50 (hmGluR5)
C(#Cc1nccs1)c1ccccc1.Cc1ccc(S(=O)(=O)O)cc1 [2-(phenylethynl)-1,3-thiazole]	soluble in aqueous medium	–	–	–
Cc1nc(C#Cc2ccc(-c3cc(F)cc(C#N)c3)nc2)cs1 [Example 1, 3-fluoro-5-{5-[(2-methyl-1,3-thiazol-4-yl)ethynyl]pyridin-2-yl}benzonitrile]	–	3 nM	20 nM	33 nM
Cc1nc(C#Cc2ccc(-n3ccc4ccncc43)nc2)cs1 [Example 18, 1-{5-[(2-methyl-1,3-thiazol-4-yl)ethynyl]pyridin-2-yl}-1H-pyrrolo[2,3-c]pyridine]	–	4.9 nM	19.3 nM	2 nM
CCC(C)Nc1ncc(C#Cc2csc(C)n2)cn1 (stereo not drawn) [Example 94]	–	9 nM	6 nM	–
Cc1nc(C#Cc2cnc(O[C@@H](C)c3ccccc3)nc2)cs1 [Example 95]	–	8 nM	9 nM	–
Cc1nc(C#Cc2cnc(N3CCCCC3C)nc2)cs1 (stereo not drawn) [Example 96]	–	5 nM	5 nM	–
Cc1nc(C#Cc2cnc(N3CCCC3)nc2)cs1 [Example 97]	–	5 nM	13 nM	–
CCN(CC)c1ncc(C#Cc2csc(C)n2)cn1 [Example 98]	–	4 nM	8 nM	–
Cc1nc(C#Cc2cnc(-n3ccc4ccncc43)nc2)cs1 [Example 99]	–	2.8 nM	33 nM	–
Cc1nc(C#Cc2cnc(N3CCSCC3)nc2)cs1 [Example 100]	–	2.3 nM	23 nM	–
Cc1nc(C#Cc2cnc(OC3CCN(C(=O)OC(C)(C)C)CC3)nc2)cs1 [Example 101]	–	2 nM	24 nM	–
Cc1nc(C#Cc2cnc(NC3CCCC3)nc2)cs1 [Example 102]	–	2 nM	26 nM	–
Cc1nc(C#Cc2cnc(N3CCCC(C)C3)nc2)cs1 (stereo not drawn) [Example 103]	–	1.6 nM	1.6 nM	–
Cc1nc(C#Cc2cnc(N3CC=CC3)nc2)cs1 [Example 104]	–	1.5 nM	6 nM	–
Cc1nc(C#Cc2cnc(NC(C)(C)C)nc2)cs1 [Example 105]	–	1 nM	1 nM	–
Cc1nc(C#Cc2cnc(N3CCCCC3CO)nc2)cs1 (stereo not drawn) [Example 107]	–	16 nM	9 nM	–
